Test results reported in patent US6667313B1, “8-substituted-6-triflouromethyl-9-pyrido [3,2-G] quinoline compounds as androgen receptor modulators” (Ligand Pharmaceuticals Inc., priority 1999, dated 2003).

What was measured:
[1] = molecular target: T1, ER (Homo sapiens, UniProt P03372); assay: Co-transfection assay, ER agonist; format: cell-based; settings: Table 2; read-out: ER Potency Agon
T1 construct: expressed in transfected cells; host or cells: CV-1 cells (inferred: the only cells described for the co-transfection assay)
T1 sequence (P03372 1-595): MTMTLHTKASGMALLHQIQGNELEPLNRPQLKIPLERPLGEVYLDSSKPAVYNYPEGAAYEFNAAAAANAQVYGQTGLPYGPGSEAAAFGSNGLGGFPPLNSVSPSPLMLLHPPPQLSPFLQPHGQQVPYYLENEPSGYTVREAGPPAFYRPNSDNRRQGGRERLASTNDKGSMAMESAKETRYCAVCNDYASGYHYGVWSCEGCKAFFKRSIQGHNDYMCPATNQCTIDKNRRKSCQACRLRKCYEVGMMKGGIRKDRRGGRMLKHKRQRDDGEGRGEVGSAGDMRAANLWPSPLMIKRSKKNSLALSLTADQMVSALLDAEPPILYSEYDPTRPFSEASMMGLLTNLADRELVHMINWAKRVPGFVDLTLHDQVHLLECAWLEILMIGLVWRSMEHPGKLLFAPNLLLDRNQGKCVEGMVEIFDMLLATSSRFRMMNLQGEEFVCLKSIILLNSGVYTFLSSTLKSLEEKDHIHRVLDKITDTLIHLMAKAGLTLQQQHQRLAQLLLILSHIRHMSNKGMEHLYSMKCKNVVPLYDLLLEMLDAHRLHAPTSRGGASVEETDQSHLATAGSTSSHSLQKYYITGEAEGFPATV

[2] = molecular target: T1, ER; assay: Co-transfection assay, ER antagonist; format: cell-based; settings: Table 2; read-out: ER Potency Antag

How did the EC50 [1] turn out when `CC(C)(O)C(=O)Nc1ccc([N+](=O)[O-])c(C(F)(F)F)c1` [Flut] was run?
The EC50 was over 10 µM.

What about the IC50 [2] of the same compound?
The IC50 was over 10 µM.
